For 23 compounds, melting point results are on record in patent publication US7238716B2, “Alkanoic acid derivatives process for their production and use thereof” (Takeda Pharmaceuticals Company Limited, priority 2000, dated 2007).

For orientation: melting point means the temperature of the solid-liquid transition.

In turn, `Cc1oc(-c2ccccc2)nc1COc1cccc(COc2ccc(CC(=O)O)cc2)c1` [Example 68, 2-[4-[3-[(5-methyl-2-phenyl-4-oxazolyl)methoxy]benzyloxy]phenyl]acetic acid] displayed a melting point of 179 to 180 °C.

In turn, `Cc1oc(-c2ccccc2)nc1COc1ccccc1COc1ccc(CC(=O)O)cc1` [Example 69, 2-[4-[2-[(5-methyl-2-phenyl-4-oxazolyl)methoxy]benzyloxy]phenyl]acetic acid] gave a melting point of 173 to 174 °C. Compound `CCOc1cc(OCc2ccccc2OCc2nc(-c3ccccc3)oc2C)ccc1CCC(=O)O` [Example 73, 3-[2-ethoxy-4-[2-[(5-methyl-2-phenyl-4-oxazolyl)methoxy]benzyloxy]phenyl]propionic acid] registered a melting point of 112 to 113 °C. The result for `Cc1oc(-c2ccccc2)nc1COc1cncc(COc2ccc(CC(=O)O)cc2)c1` [Example 75, 2-[4-[5-[(5-methyl-2-phenyl-4-oxazolyl)methoxy]-3-pyridylmethoxy]phenyl]acetic acid] reads 141 to 142 °C; that for `Cc1oc(-c2ccccc2)nc1COc1cccc(COc2cncc(CC(=O)O)c2)c1` [Example 76, 2-[5-[3-[(5-methyl-2-phenyl-4-oxazolyl)methoxy]benzyloxy]-3-pyridyl]acetic acid], 158 to 159 °C. With `CCCc1oc(-c2ccccc2)nc1COc1ccc(COc2cccc(CC(=O)O)c2)cc1` [Example 87, 2-[3-[4-[(2-phenyl-5-propyl-4-oxazolyl)methoxy]benzyloxy]phenyl]acetic acid] the figure was 115 to 116 °C; with `Cc1oc(-c2ccccc2)nc1/C=C/c1ccc(COc2ccccc2CC(=O)O)cc1` [Example 95, 2-[2-[4-[(E)-2-(5-methyl-2-phenyl-4-oxazolyl)ethenyl]benzyloxy]phenyl]acetic acid], 189 to 190 °C. `Cc1oc(-c2ccccc2)nc1CCc1nc(COc2cccc(CC(=O)O)c2)cs1` [Example 105, 2-[3-[[2-[2-(5-methyl-2-phenyl-4-oxazolyl)ethyl]-4-thiazolyl]methoxy]phenyl]acetic acid] displayed a melting point of 153 to 154 °C. On to `Cc1oc(-c2ccccc2)nc1CCc1noc(COc2cccc(CC(=O)O)c2)n1` [Example 109, 2-[3-[[3-[2-(5-methyl-2-phenyl-4-oxazolyl)ethyl]-1,2,4-oxadiazol-5-yl]methoxy]phenyl]acetic acid], for which the melting point lay in the range of 93 to 94 °C. With `Cc1oc(-c2ccccc2)nc1CCOc1ccc(COc2ncccc2CC(=O)O)cc1` [Example 111, 2-[2-[4-[2-(5-methyl-2-phenyl-4-oxazolyl)ethoxy]benzyloxy]-3-pyridyl]acetic acid] the figure was 134 to 135 °C; with `COC(=O)Cc1ccccc1OCc1cc(OCc2nc(-c3ccccc3)sc2C)no1` [Example 113, methyl 2-[2-[[3-[(5-methyl-2-phenyl-4-thiazolyl)methoxy]-5-isoxazolyl]methoxy]phenyl]acetate], 108 to 109 °C; with `Cc1sc(-c2ccccc2)nc1COc1cc(COc2ccccc2CC(=O)O)on1` [Example 114, 2-[2-[[3-[(5-methyl-2-phenyl-4-thiazolyl)methoxy]-5-isoxazolyl]methoxy]phenyl]acetic acid], 147 to 148 °C. The result for `COC(=O)Cc1ccccc1OCc1cc(OCCc2nc(-c3ccccc3)sc2C)no1` [Example 116, methyl 2-[2-[[3-[2-(5-methyl-2-phenyl-4-thiazolyl)ethoxy]-5-isoxazolyl]methoxy]phenyl]acetate] reads 80 to 81 °C; that for `Cc1sc(-c2ccccc2)nc1CCOc1cc(COc2ccccc2CC(=O)O)on1` [Example 117, 2-[2-[[3-[2-(5-methyl-2-phenyl-4-thiazolyl)ethoxy]-5-isoxazolyl]methoxy]phenyl]acetic acid], 159 to 160 °C; that for `COC(=O)Cc1ccccc1OCc1ccc(OCCc2nc(-c3ccccc3)oc2C)nc1` [Example 118, methyl 2-[2-[[6-[2-(5-methyl-2-phenyl-4-oxazolyl)ethoxy]-3-pyridyl]methoxy]phenyl]acetate], 78 to 79 °C. Compound `COC(=O)Cc1ccccc1OCc1ccc(OCc2nc(-c3ccccc3)sc2C)nc1` [Example 121, methyl 2-[2-[[6-[(5-methyl-2-phenyl-4-thiazolyl)methoxy]-3-pyridyl]methoxy]phenyl]acetate] yielded a melting point of 119 to 120 °C. With `CC(Nc1nc(-c2ccccc2)cs1)c1ccc(COc2ccc(CC(=O)O)cc2)cc1` (centres unmarked) [Example 128, 4-[4-[methyl(4-phenyl-2-thiazolyl)aminomethyl]benzyloxy]phenylacetic acid] the figure was 116 to 118 °C. In turn, `COC(=O)Cc1cccc(OCc2ccc(OC)c(OCc3nc(-c4ccccc4)oc3C)c2)c1` [Example 131, methyl 3-[4-methoxy-3-[(2-phenyl-5-methyl-4-oxazolyl)methoxy]benzyloxy]phenylacetate] came in with a melting point of 88 to 89 °C.

On to `Cc1oc(-c2ccccc2)nc1COc1ccc(COc2ncccc2C=CC(=O)O)cc1` [Example 134, 3-[2-[4-[(5-methyl-2-phenyl-4-oxazolyl)methoxy]benzyloxy]-3-pyridyl]propenoic acid], for which the melting point fell in the range of 174 to 175 °C. With `CCOC(=O)C=Cc1cccnc1OCc1ccc(OCc2nc(-c3ccco3)oc2C)c(OC)c1` [Example 135, ethyl 3-[2-[4-[[2-(2-furyl)-5-methyl-4-oxazolyl]methoxy]-3-methoxybenzyloxy]-3-pyridyl]propenoate] the figure was 85 to 87 °C; with `Cc1oc(-c2ccccc2)nc1COc1cccc(CSc2cccc(CC(=O)O)c2)c1` [Example 139, 2-[3-[3-[(5-methyl-2-phenyl-4-oxazolyl)methoxy]benzylthio]phenyl]acetic acid], 81 to 82 °C; with `Cc1oc(-c2ccccc2)nc1COc1cccc(CSc2cccc(CCC(=O)O)c2)c1` [Example 140, 3-[3-[3-[(5-methyl-2-phenyl-4-oxazolyl)methoxy]benzylthio]phenyl]propionic acid], 120 to 121 °C.

The compound `Cc1oc(-c2ccccc2)nc1COc1cccc(CSc2ccc(CC(=O)O)cc2Cl)c1` [Example 142, 2-[3-chloro-4-[3-[(5-methyl-2-phenyl-4-oxazolyl)methoxy]benzylthio]phenyl]acetic acid] gave a melting point of 150 to 151 °C.
